Assay results from patent US20240166629A1, “HETEROCYCLIC COMPOUNDS CAPABLE OF ACTIVATING STING” (Boehringer Ingelheim International GmbH, priority 2022, published 2024).

Assays:
[1] = molecular target: T1, human STING variant H232R (WT) (Homo sapiens, UniProt Q86WV6, H232R); assay: THP1-Blue ISG IRF-inducible SEAP reporter assay, STING H232R-variant; assay type: cell-based; details: THP1-Blue ISG hSTING KO cells expressing STING H232R; 24 hours incubation
T1 construct: expressed in transfected cells; host or cells: THP1-Blue ISG hSTING KO clone, retroviral MSCV-ires-GFP-Blasti
From the text: (§1) Activation of the STING protein expressed in cell lines results in an increase of interferon production. By the stable integration of an interferon regulatory factor (IRF)-inducible SEAP gene (secreted embryonic alkaline phosphatase) reporter construct the functional interferon signaling pathway can be monitored. Using Invivogen's THP1-Blue™ ISG colorimetric enzyme assay and a suitable optical density (OD) reader the activity of SEAP can be detected and quantified. This technique could be used to characterize pharmacological modification of the STING pathway.
(§2) Several single nucleotide polymorphisms have been identified in the human STING gene. To determine the activity of the above described compounds, THP1-Blue™ ISG reporter cell lines expressing the different human STING variants have been generated. To do so, the endogenous human STING was first deleted using the CRISPR/CAS9 system: THP1-Blue ISG cells were electroporated with ALL-IN-ONE CRISPR plasmids targeting the STING gene (purchased from Sigma encoding the gRNA and GFP as a reporter gene for successful transduction). GFP positive cells then were sorted 24 h post transfection and expanded. Cells were then dispersed in semisolid methocel medium to allow single cell clone isolations. Clones were then screened for cGAMP responsiveness using the Quanti-Blue™ reporter assay. Non-responsive clones were subsequently analysed for STING loss by western blotting and sequencing of the STING locus.
(§3) For the overexpression of the human STING variants, a confirmed THP1-Blue™ ISG hSTING KO clone was transduced with individual retroviral plasmids (MSCV-ires-GFP-Blasti) encoding the allelic variants of hSTING (WT (H232R), HAQ, R232H, AQ and R293Q). Transduced cells were sorted for different levels of GFP fluorescence and STING allele expression was analysed by western blot.
(§4) Measurements of SEAP activity were performed in THP1-Blue™ ISG cells stably expressing the different human STING isoforms and the IRF-inducible SEAP reporter construct. Cells were cultivated in RPMI1640 medium with 10% fetal calf serum, 50 μg/ml Penicillin-Streptomycin, 100 μg/ml Zeocin, and 100 μg/ml Normocin in a 37°, 95% humidity and 5% CO2 incubator.
(§5) In preparation for the assay, the cells were distributed into the assay plates with a density of 10000 cells/15 μL per well. Compounds were prepared by an 8 point serial dilution in 50% aqueous DMSO and a final dilution step into medium to ensure a final DMSO concentration of 0.5% in the assay. 5 μL of diluted compounds were added to the plates, followed by a 24 hours incubation at 37° C.
(§6) At the day of the assay, 75 μl per well of Quanti-Blue™ reagent was added to all wells of the plate and the plate was incubated another 30 minutes at 37° C. The OD at 620 nm was measured on the EnVision reader (PerkinElmer).

[2] = molecular target: T2, human STING variant R232H (Homo sapiens, UniProt Q86WV6); assay: THP1-Blue ISG IRF-inducible SEAP reporter assay, STING R232H-variant; assay type: cell-based; details: THP1-Blue ISG hSTING KO cells expressing STING R232H; 24 hours incubation
T2 construct: expressed in transfected cells; host or cells: THP1-Blue ISG hSTING KO clone, retroviral MSCV-ires-GFP-Blasti
From the text: as §1, §2, §3, §4, §5, §6

[3] = tested on: Human STING (hSTING, UNIPROT entry Q86WV6, residues 155-341); assay: Interaction with hSTING by differential scanning fluorimetry (DSF); assay type: binding; details: 100 μM test compound, 5 μM hSTING protein
Method: In DSF, the temperature at which a protein unfolds, also called the melting temperature Tm, is measured by changes in fluorescence of a dye that binds to the hydrophobic parts of the protein. Tm shifts upon binding of a small molecule are correlated with the binding affinity of this small molecule. As target protein, Human STING (hSTING, UNIPROT entry Q86WV6, residues 155-341, MW: 21578.4 Da; protein stock solution: c=1302 μM stock solution in 20 mM Tris, 100 mM NaCl, 2 mM TCEP pH 8.8) was used, as assay buffer 20 mM Tris, 150 mM NaCl pH7.5 was added where and as necessary.
Final concentrations of components in assay: 100 μM test compounds, 5 μM target protein, “5×” SYPR Orange (from stock solution SYPRO orange solution in DMSO (invitrogen cat.-no. 56650-500ul), concentration “5000×”)
Assay Procedure: • 1) Dilutions of compound stock solutions (10 mM in DMSO) were prepared in assay buffer (20 mM Tris, 150 mM NaCl; pH7.5) • 2) 5 μl fluorescent dye stock solution (5000×SYPRO Orange in DMSO) was mixed with 19 μl target protein (1302 μM) and 976 μl assay buffer. • 3) 2 μl of this protein-dye-mixture (25×SYPRO Orange and 25 μM Protein) was added to 8 μl diluted compound solution as prepared in step 1. Final volume was 10 μl. • 4) With every 20 compounds, two negative controls were measured. • 5) The plates were prepared for duplicate measurement and centrifuged for 2 min at 1000 g. • 6) For the measurement, a CFX384 Real-Time System (Bio-Rad) was used. The run consisted of 140 cycles with 0.5° C./cycle (temperature ramp 15 s/cycle, 25° C. to 95° C.).
Data analysis: The melting curves were processed in Bio-Rad CFX Manager. Peak type was set to “negative”. Two replicates of TM (melting temperature) measurements were averaged and the standard deviation was calculated.

[4] = molecular target: T3, human STING variant R293Q (Homo sapiens, UniProt Q86WV6, H232R/R293Q); assay: THP1-Blue ISG IRF-inducible SEAP reporter assay, STING R293Q-variant; assay type: cell-based; details: THP1-Blue ISG hSTING KO cells expressing STING R293Q; 24 hours incubation
T3 construct: expressed in transfected cells; host or cells: THP1-Blue ISG hSTING KO clone, retroviral MSCV-ires-GFP-Blasti
From the text: as §1, §2, §3, §4, §5, §6

in vitro = details: human, Caco-2, pH 7.4
Method: Caco-2 cells were obtained from Leibniz Institute DSMZ-German Collection of Microorganisms and Cell Cultures (Braunschweig, Germany) and cultured in DMEM (Dulbecco's modified Eagle medium) containing (in final concentrations) 10% FCS (fetal calf serum), 1% NEAA (non-essential amino acids), 2 mM Glutamin, 100 U/mL Penicillin and 100 μg/mL Streptomycin. Caco-2 cells were seeded either onto 24-well Transwell inserts (Corning, #3379) for bidirectional permeability assays at a density of 160,000 cells/cm^2 and cultured for 3 weeks, with media change on every second day.
For bidirectional permeability assays 10 mM DMSO stock solutions were diluted in transport buffer (final concentrations: 128.13 mM NaCl, 5.36 mM KCl, 1 mM MgSO4, 1.8 mM CaCl2, 4.17 mM NaHCO3, 1.19 mM Na2HPO4, 0.41 mM NaH2PO4, 15 mM 2-[4-(2-hydroxyethyl)piperazin-1-yl]ethanesulfonic acid (HEPES), 20 mM glucose, pH 7.4) containing 0.25% bovine serum albumin to a final concentration of 10 μM of the test compounds and added to the apical or basal compartment. Cells were incubated with the compounds for up to 2 h. Samples from the opposite compartment were taken at different timepoints.
Compound concentrations in the compartments were quantified using a RapidFire-based high-throughput HPLC/MS/MS system (high performance liquid chromatography/mass spectrometry; BioCius) that was customized to a fully automated and flexible platform, termed RIAS. In this modified setup, the sample was aspirated by a vacuum pump into a 10 μL sample loop for 250 ms and flushed onto a C4 cartridge (3.8 μL bed volume; BioCius) with the aqueous mobile phase (99.9% water, 0.09% formic acid, and 0.01% TFA; flow rate 1.5 mL/min). Prior to bioanalysis samples were spiked with internal standard solution and diluted with acetonitrile (ACN) for protein precipitation. Measurement was operated in multiplereaction monitoring (MRM) mode. Quantification was performed using external calibration. A solid-phase extraction step retained the analyte for 3000 ms while interfering matrix (e.g., buffer components) was removed. With a simple step gradient, the analyte was back-eluted from the cartridge for 3,000 ms with the organic mobile phase (99.9% acetonitrile/methanol [1:1, v:v], 0.09% formic acid, and 0.01% TFA) and flushed into the mass spectrometer at a flow rate of 1.25 mL/min. Afterwards, the cartridge was reequilibrated with the aqueous mobile phase for 500 ms (flow rate 1.5 mL/min). The RapidFire software and a customized control software were obtained from BioCius. QuickQuan 2.3, Xcalibur 2.0.7, and XDK 2.1.0.25 were used to operate the TSQ Vantage mass spectrometer (ThermoFisher, San Jose, CA) integrated to the RapidFire system. Mass spectral data-processing software QuickCalc 7.1.9 was purchased from ThermoFisher. The Master software for the RIAS was programmed in-house using LabVIEW (version 8.6.1; National Instruments, Austin, TX). Data analysis was performed in AssayExplorer 3.2 (Symyx, Sunnyvale, CA), and correlation plots were visualized in Spotfire version 2.2.0 (TIBCO, Palo Alto, CA).
Apparent permeability coefficients in the apical to basal direction (Papp,AB) and in the basal to apical direction (Papp,BA) and efflux ratios were calculated as follows:
Efflux ratio=Papp,BA/Papp,AB
where Q is the amount of compound recovered in the receiver compartment after the incubation time t, C0 the initial compound concentration given to the donor compartment, and s the surface area of the Transwell inserts. […] In addition, transepithelial electrical resistance (TEER) values are measured for each plate before the permeability assay, and total recovery in donor and receiver compartments was determined for each compound.

human STING variant AQ = molecular target: T4, human STING variant AQ (Homo sapiens, UniProt Q86WV6, G230A/H232R/R293Q); assay: THP1-Blue ISG IRF-inducible SEAP reporter assay, STING AQ-variant; assay type: cell-based; details: THP1-Blue ISG hSTING KO cells expressing STING AQ; 24 hours incubation
T4 construct: expressed in transfected cells; host or cells: THP1-Blue ISG hSTING KO clone, retroviral MSCV-ires-GFP-Blasti
From the text: as §1, §2, §3, §4, §5, §6

human STING variant HAQ = molecular target: T5, human STING variant HAQ (Homo sapiens, UniProt Q86WV6, G230A/H232R/R293Q/R71H); assay: THP1-Blue ISG IRF-inducible SEAP reporter assay, STING HAQ-variant; assay type: cell-based; details: THP1-Blue ISG cells expressing STING HAQ (parental or re-introduced); 24 hours incubation; SEAP OD 620 nm
T5 construct: expressed in transfected cells; host or cells: THP1-Blue ISG: either parental cells (endogenous HAQ) or hSTING KO clone retrovirally transduced with HAQ
From the text: as §1, §2, §3, §4, §5, §6
Data of EC50 values on STING HAQ-variant can be found in table 2a. Shown data below were either derived from the parental THP1-Blue™ ISG cell lines (which express endogenously HAQ) or from genetically engineered THP1-Blue™ ISG cell lines in which first STING has been knocked-out and the HAQ specific STING isoform has been re-introduced as described above.

T5 sequence (Q86WV6 whole entry R71H/G230A/H232R/R293Q): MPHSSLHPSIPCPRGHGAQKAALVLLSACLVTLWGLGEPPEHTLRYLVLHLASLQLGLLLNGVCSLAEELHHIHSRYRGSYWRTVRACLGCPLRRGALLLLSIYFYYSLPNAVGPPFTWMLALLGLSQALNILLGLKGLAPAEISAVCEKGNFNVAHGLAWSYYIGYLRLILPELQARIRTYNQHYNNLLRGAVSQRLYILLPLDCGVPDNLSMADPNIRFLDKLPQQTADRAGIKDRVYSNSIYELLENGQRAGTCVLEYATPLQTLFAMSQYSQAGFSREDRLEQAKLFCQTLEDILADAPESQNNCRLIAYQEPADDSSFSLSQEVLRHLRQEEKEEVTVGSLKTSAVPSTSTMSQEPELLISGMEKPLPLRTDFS
T2 sequence (Q86WV6 whole entry, stated change not applied): as the sequence (Q86WV6 whole entry R71H/G230A/H232R/R293Q) above, with H71R, A230G, R232H, Q293R counted along it
T3 sequence (Q86WV6 whole entry H232R/R293Q): as the sequence (Q86WV6 whole entry R71H/G230A/H232R/R293Q) above, with H71R, A230G counted along it
T1 sequence (Q86WV6 whole entry H232R): as the sequence (Q86WV6 whole entry R71H/G230A/H232R/R293Q) above, with H71R, A230G, Q293R counted along it
T4 sequence (Q86WV6 whole entry G230A/H232R/R293Q): as the sequence (Q86WV6 whole entry R71H/G230A/H232R/R293Q) above, with H71R counted along it

EC50 [1]: 100 nM
EC50 [2]: 100 nM
EC50 [4]: 100 nM
Papp A→B at 10 μM (in vitro): 11 ×10⁻⁶ cm/s
efflux ratio at 10 μM (in vitro): 1.4
EC50 (human STING variant AQ): 100 nM
EC50 (human STING variant HAQ): 100 nM
Compound: Cc1c(Cl)ccc2c(-c3cccc4nn(C)cc34)nn(-c3ccc(N4C[C@@H]5[C@H](C4)[C@H]5C(=O)O)nc3)c12 [compound 8, (1R,5S,6r)-3-(5-(6-chloro-2′,7-dimethyl-1H,2′H-[3,4′-biindazol]-1-yl)pyridin-2-yl)-3-azabicyclo[3.1.0]hexane-6-carboxylic acid]
TM (changes in TM, thermal shift) [3]: 22 K
